Test results published in patent US20230123334A1, “AMINO LIPID COMPOUND, PREPARATION METHOD THEREFOR, AND APPLICATION THEREOF” (SHENZHEN SHENXIN BIOTECHNOLOGY CO., LTD., priority 2020, published 2023).

System: HEK293 cells
Test: Preliminary screening as mRNA vectors, EGFP mRNA transfection of HEK293 cells
Format: cell-based
Conditions: EGFP mRNA 50 ng per well, 96-well plates; percentage of GFP fluorescent cells relative to total number of cells (Hoechst)
Outline: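 Each well of HEK293 cells received 50 ng of EGFP mRNA. Efficiency was expressed as percent GFP-expressing cells over Hoechst-defined total cell number.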

Compound | Absolute mRNA transfection efficiency in HEK293 cells
CCCCCCCCCSc1nc(NCCN2CCCC2)nc(SCCCCCCC)n1 [Compound D3S7S9] | 12.6%
CCCCCCCCCCSc1nc(NCCN2CCCC2)nc(SCCCCCCC)n1 [Compound D3S7S10] | 3.3%
CCCCCCCCCCCSc1nc(NCCN2CCCC2)nc(SCCCCCCC)n1 [Compound D3S7S11] | 11.4%
CCCCCCCCCCCCSc1nc(NCCN2CCCC2)nc(SCCCCCCC)n1 [Compound D3S7S12] | 5.4%
CCCCCCCCCCCCCCSc1nc(NCCN2CCCC2)nc(SCCCCCCC)n1 [Compound D3S7S14] | 14.6%
CCCCCCCCCCCCCCCSc1nc(NCCN2CCCC2)nc(SCCCCCCC)n1 [Compound D3S7S15] | 12.0%
CCCCCCCCCCCCCCCCSc1nc(NCCN2CCCC2)nc(SCCCCCCC)n1 [Compound D3S7S16] | 11.6%
CCCCCCCCCCCCCCCCCCSc1nc(NCCN2CCCC2)nc(SCCCCCCC)n1 [Compound D3S7S18] | 7.9%
CCCCCCCCSc1nc(NCCCCCC)nc(NCCN2CCCC2)n1 [Compound D3S8N6] | 2.6%
CCCCCCCCSc1nc(NCCCCCCC)nc(NCCN2CCCC2)n1 [Compound D3S8N7] | 0.7%
CCCCCCCCNc1nc(NCCN2CCCC2)nc(SCCCCCCCC)n1 [Compound D3S8N8] | 3.0%
CCCCCCCCCNc1nc(NCCN2CCCC2)nc(SCCCCCCCC)n1 [Compound D3S8N9] | 3.2%
CCCCCCCCCCCNc1nc(NCCN2CCCC2)nc(SCCCCCCCC)n1 [Compound D3S8N11] | 6.6%
CCCCCCCCCCCCNc1nc(NCCN2CCCC2)nc(SCCCCCCCC)n1 [Compound D3S8N12] | 24.6%
CCCCCCCCCCCCCNc1nc(NCCN2CCCC2)nc(SCCCCCCCC)n1 [Compound D3S8N13] | 35.8%
CCCCCCCCCCCCCCCNc1nc(NCCN2CCCC2)nc(SCCCCCCCC)n1 [Compound D3S8N15] | 21.8%
CCCCCCCCCCCCCCCCNc1nc(NCCN2CCCC2)nc(SCCCCCCCC)n1 [Compound D3S8N16] | 14.3%
CCCCCCCCCCCCCCCCCCNc1nc(NCCN2CCCC2)nc(SCCCCCCCC)n1 [Compound D3S8N18] | 28.6%
CCCCCCCCSc1nc(NCCN2CCCC2)nc(SCCCCCCCC)n1 [Compound D3S8S8] | 26.1%
CCCCCCCCCSc1nc(NCCN2CCCC2)nc(SCCCCCCCC)n1 [Compound D3S8S9] | 11.6%
CCCCCCCCCCSc1nc(NCCN2CCCC2)nc(SCCCCCCCC)n1 [Compound D3S8S10] | 12.0%

Compound | Absolute mRNA transfection efficiency in HEK293 cells
CCCCCCCCCCCSc1nc(NCCN2CCCC2)nc(SCCCCCCCC)n1 [Compound D3S8S11] | 4.9%
CCCCCCCCCCCCSc1nc(NCCN2CCCC2)nc(SCCCCCCCC)n1 [Compound D3S8S12] | 3.5%
CCCCCCCCCSc1nc(NCCCCCC)nc(NCCN2CCCC2)n1 [Compound D3S9N6] | 0.2%
CCCCCCCCCSc1nc(NCCCCCCC)nc(NCCN2CCCC2)n1 [Compound D3S9N7] | 1.4%
CCCCCCCCCSc1nc(NCCCCCCCC)nc(NCCN2CCCC2)n1 [Compound D3S9N8] | 10.4%
CCCCCCCCCNc1nc(NCCN2CCCC2)nc(SCCCCCCCCC)n1 [Compound D3S9N9] | 15.4%
CCCCCCCCCCCNc1nc(NCCN2CCCC2)nc(SCCCCCCCCC)n1 [Compound D3S9N11] | 47.8%
CCCCCCCCCCCCNc1nc(NCCN2CCCC2)nc(SCCCCCCCCC)n1 [Compound D3S9N12] | 49.6%
CCCCCCCCCCCCCNc1nc(NCCN2CCCC2)nc(SCCCCCCCCC)n1 [Compound D3S9N13] | 58.2%
CCCCCCCCCCCCCCCNc1nc(NCCN2CCCC2)nc(SCCCCCCCCC)n1 [Compound D3S9N15] | 67.9%
CCCCCCCCCCCCCCCCNc1nc(NCCN2CCCC2)nc(SCCCCCCCCC)n1 [Compound D3S9N16] | 50.3%
CCCCCCCCCCCCCCCCCCNc1nc(NCCN2CCCC2)nc(SCCCCCCCCC)n1 [Compound D3S9N18] | 26.7%
CCCCCCCCCCSc1nc(NCCCCCC)nc(NCCN2CCCC2)n1 [Compound D3S10N6] | 0.4%
CCCCCCCCCCSc1nc(NCCCCCCC)nc(NCCN2CCCC2)n1 [Compound D3S10N7] | 1.4%
CCCCCCCCCCSc1nc(NCCCCCCCC)nc(NCCN2CCCC2)n1 [Compound D3S10N8] | 0.4%
CCCCCCCCCCSc1nc(NCCCCCCCCC)nc(NCCN2CCCC2)n1 [Compound D3S10N9] | 2.7%
CCCCCCCCCCCNc1nc(NCCN2CCCC2)nc(SCCCCCCCCCC)n1 [Compound D3S10N11] | 17.1%
CCCCCCCCCCCCNc1nc(NCCN2CCCC2)nc(SCCCCCCCCCC)n1 [Compound D3S10N12] | 19.1%
CCCCCCCCCCCCCNc1nc(NCCN2CCCC2)nc(SCCCCCCCCCC)n1 [Compound D3S10N13] | 35.0%
CCCCCCCCCCCCCCCNc1nc(NCCN2CCCC2)nc(SCCCCCCCCCC)n1 [Compound D3S10N15] | 57.6%
CCCCCCCCCCCCCCCCNc1nc(NCCN2CCCC2)nc(SCCCCCCCCCC)n1 [Compound D3S10N16] | 56.7%

Compound | Absolute mRNA transfection efficiency in HEK293 cells
CCCCCCCCCCCCCCCCCCNc1nc(NCCN2CCCC2)nc(SCCCCCCCCCC)n1 [Compound D3S10N18] | 59.6%
CCCCCCCCCCCSc1nc(NCCCCCC)nc(NCCN2CCCC2)n1 [Compound D3S11N6] | 18.1%
CCCCCCCCCCCSc1nc(NCCCCCCC)nc(NCCN2CCCC2)n1 [Compound D3S11N7] | 8.0%
CCCCCCCCCCCSc1nc(NCCCCCCCC)nc(NCCN2CCCC2)n1 [Compound D3S11N8] | 31.8%
CCCCCCCCCCCSc1nc(NCCCCCCCCC)nc(NCCN2CCCC2)n1 [Compound D3S11N9] | 24.5%
CCCCCCCCCCCNc1nc(NCCN2CCCC2)nc(SCCCCCCCCCCC)n1 [Compound D3S11N11] | 33.5%
CCCCCCCCCCCCNc1nc(NCCN2CCCC2)nc(SCCCCCCCCCCC)n1 [Compound D3S11N12] | 40.5%
CCCCCCCCCCCCCNc1nc(NCCN2CCCC2)nc(SCCCCCCCCCCC)n1 [Compound D3S11N13] | 25.9%
CCCCCCCCCCCCCCCNc1nc(NCCN2CCCC2)nc(SCCCCCCCCCCC)n1 [Compound D3S11N15] | 31.3%
CCCCCCCCCCCCCCCCNc1nc(NCCN2CCCC2)nc(SCCCCCCCCCCC)n1 [Compound D3S11N16] | 15.7%
CCCCCCCCCCCCCCCCCCNc1nc(NCCN2CCCC2)nc(SCCCCCCCCCCC)n1 [Compound D3S11N18] | 40.6%
CCCCCCCCCCCCSc1nc(NCCCCCC)nc(NCCN2CCCC2)n1 [Compound D3S12N6] | 0.0%
CCCCCCCCCCCCSc1nc(NCCCCCCC)nc(NCCN2CCCC2)n1 [Compound D3S12N7] | 9.2%
CCCCCCCCCCCCSc1nc(NCCCCCCCC)nc(NCCN2CCCC2)n1 [Compound D3S12N8] | 12.3%
CCCCCCCCCCCCSc1nc(NCCCCCCCCC)nc(NCCN2CCCC2)n1 [Compound D3S12N9] | 39.9%
CCCCCCCCCCCCSc1nc(NCCCCCCCCCCC)nc(NCCN2CCCC2)n1 [Compound D3S12N11] | 21.2%
CCCCCCCCCCCCNc1nc(NCCN2CCCC2)nc(SCCCCCCCCCCCC)n1 [Compound D3S12N12] | 10.8%
CCCCCCCCCCCCCNc1nc(NCCN2CCCC2)nc(SCCCCCCCCCCCC)n1 [Compound D3S12N13] | 0.3%
CCCCCCCCCCCCCCCNc1nc(NCCN2CCCC2)nc(SCCCCCCCCCCCC)n1 [Compound D3S12N15] | 1.5%
CCCCCCCCCCCCCCCCNc1nc(NCCN2CCCC2)nc(SCCCCCCCCCCCC)n1 [Compound D3S12N16] | 1.9%
CCCCCCCCCCCCCCCCCCNc1nc(NCCN2CCCC2)nc(SCCCCCCCCCCCC)n1 [Compound D3S12N18] | 3.5%
